Experimental findings from US20240299559A1, “COMPOUNDS THAT MEDIATE PROTEIN DEGRADATION AND METHODS OF USE THEREOF” (Monte Rosa Therapeutics, Inc., priority 2021, published 2024) are described below.

One may read the Dmax as the largest share of the target that was removed. As a reminder, the Ki is a dissociation constant, usually derived from enzyme kinetics or from competition with a known ligand. Low readings indicate higher affinity, high ones lower affinity.

For experiment [1], the target named is T1, CDK2 (Homo sapiens, UniProt P24941).
T1 construct: HEK293 clonal lines with CRISPR KI HiBiT tag on CDK2 proteins; host or cells: HEK293 clonal line with CRISPR knock-in HiBiT on CDK2, stably expressing LgBiT
Briefly: CDK2 HiBiT assay (degradation, Dmax). The format is cell-based. The settings on record: HEK293 clonal lines with CRISPR KI HiBiT tag on CDK2, stably expressing LgBiT; 24 hours incubation. Here is the method: HEK293 clonal lines with CRISPR KI HiBiT tag on CDK2 proteins and stably expressing LgBiT protein were obtained from Promega (Madison, WI). Cells were plated at 5000 cells per well using Multiflo (BioTek) in 384-well white solid bottom plates (Corning, 3570BC) in 25 ul volume in DMEM media (DMEM, high glucose, HEPES, no phenol red (ThermoFisher Scientific, 21063029)) containing 10% FBS (Corning, 35-075-CV), 1% Penicillin/Streptomycin (ThermoFisher Scientific, 15140-122). Cells were incubated for 16 hours at 37° C., 5% CO2. 75 nL of a compound at 30 μM were dosed into the plate using an Echo® 650 liquid handler (Labcyte). Cells were incubated at 37° C., 5% CO2 for 24 hours. 5 ul of HiBiT Lysis Reagent (Promega, N3030) is added using Combi Multidrop (ThermoFisher Scientific), plates are incubated for 15′ at 37° C., 5% CO2 and then signal was read on a Pherastar FSX using “LUM plus” optic module.
Analysis was performed in Scinamic (Scinamic, Cambridge, MA). Luminescence response (R) was calculated by the formula: response=100*(S−N)/(P−N) where S is the signal of the well, N and P the mean negative and positive control values respectively of the same plate. The luminescence response was then fitted in Scinamic using a 3-parameter agonist logistic fit (hillslope=1, EC50>0, top/bottom unconstrained).

In experiment [2] the target is CRBN-DDB1 (Homo sapiens, UniProt Q96SW2). As to the kind of experiment: Compound binding to CRBN by HTRF assay. The settings on record: CRBN-DDB1 2.5 nM, Cy5-Thalidomide 100 nM probe; Ki from geometric mean of IC50 by Cheng-Prustoff transformation. The method, then: Compound activity was monitored in a Homogenous Time-Resolved Fluorescence (HTRF) assay using 1-[5-({2-[2-(2-{[2-(2,6-dioxopiperidin-3-yl)-1,3-dioxo-2,3-dihydro-1H-isoindol-4-yl]oxy}acetamido)ethoxy]ethyl}carbamoyl)pentyl]-3,3-dimethyl-2-[(1E,3E)-5-[(2E)-1,3,3-trimethyl-5-sulfo-2,3-dihydro-1H-indol-2-ylidene]penta-1,3-dien-1-yl]-3H-indol-1-ium-5-sulfonate as a fluorescent probe. Biochemical assays were conducted in Greiner white 384 well HiBase plates (Cat. No 784075-25) in 10 μL total volume. A one pot detection solution of CRBN-DDB1 (2.5 nM), Anti-His Terbium Cryptate Gold (1×, PerkinElmer Cat. #: 61HI2TLB), and Cy5-Thalidomide (100 nM, Tenova Cat.: T52461) was prepared in 20 mM HEPES, 20 mM NaCl, 0.2 mM TCEP, 0.2 mM EDTA, and 0.005% Tween20 was dispensed to each assay plate. Compounds were stored in dry, ambient temperatures at 10 mM. A 10-point, 1:3 dilution series was prepared from 10 mM stock concentrations in Echo-compatible LDV plates. 10 nL of each compound dilution series was dispensed into assays wells using an Echo 650 (Labcyte inc. USA). 10 nL of 10 mM Lenalidomide was transferred into the active-control wells for the assay and 10 nL of DMSO was transferred into the neutral-control wells. The assay was then allowed to incubate for 30 min at ambient temperature after transferring compound. Plate measurements were taken on a Pherastar FSX (BMG Labtech, Germany) using the HTRF Red filter (Ex. 337 nm, em1:620 nm, em2:665 nm) (Flashes: 50, Integration time: 60-400 us, Z-height: 10 mm, Ratio-multipler: 10,000). The HTRF signal was then subsequently normalized to the neutral and active controls. Analysis and IC50 values were derived using KNIME analytics (KNIME Zurich) transformation and fitting within Collaborative Drug Discovery (Collaborative Drug Discovery USA). Ki was derived from the geometric mean of the IC50 values using the Cheng-Prustoff transformation.
Sequence of CRBN-DDB1 (Q96SW2 whole entry): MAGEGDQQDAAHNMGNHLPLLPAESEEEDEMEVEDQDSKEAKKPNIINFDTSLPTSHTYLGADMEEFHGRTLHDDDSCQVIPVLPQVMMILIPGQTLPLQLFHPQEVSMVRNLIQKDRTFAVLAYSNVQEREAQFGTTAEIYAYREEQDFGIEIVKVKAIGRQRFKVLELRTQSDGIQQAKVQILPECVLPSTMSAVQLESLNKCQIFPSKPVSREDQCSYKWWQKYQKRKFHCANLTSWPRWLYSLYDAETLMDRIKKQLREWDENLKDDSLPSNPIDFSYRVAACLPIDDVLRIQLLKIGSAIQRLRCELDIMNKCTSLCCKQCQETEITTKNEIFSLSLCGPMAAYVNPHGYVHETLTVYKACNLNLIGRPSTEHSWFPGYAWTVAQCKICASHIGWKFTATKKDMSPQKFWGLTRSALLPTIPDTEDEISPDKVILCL
Sequence of CRBN-DDB1 (Q16531 whole entry partner): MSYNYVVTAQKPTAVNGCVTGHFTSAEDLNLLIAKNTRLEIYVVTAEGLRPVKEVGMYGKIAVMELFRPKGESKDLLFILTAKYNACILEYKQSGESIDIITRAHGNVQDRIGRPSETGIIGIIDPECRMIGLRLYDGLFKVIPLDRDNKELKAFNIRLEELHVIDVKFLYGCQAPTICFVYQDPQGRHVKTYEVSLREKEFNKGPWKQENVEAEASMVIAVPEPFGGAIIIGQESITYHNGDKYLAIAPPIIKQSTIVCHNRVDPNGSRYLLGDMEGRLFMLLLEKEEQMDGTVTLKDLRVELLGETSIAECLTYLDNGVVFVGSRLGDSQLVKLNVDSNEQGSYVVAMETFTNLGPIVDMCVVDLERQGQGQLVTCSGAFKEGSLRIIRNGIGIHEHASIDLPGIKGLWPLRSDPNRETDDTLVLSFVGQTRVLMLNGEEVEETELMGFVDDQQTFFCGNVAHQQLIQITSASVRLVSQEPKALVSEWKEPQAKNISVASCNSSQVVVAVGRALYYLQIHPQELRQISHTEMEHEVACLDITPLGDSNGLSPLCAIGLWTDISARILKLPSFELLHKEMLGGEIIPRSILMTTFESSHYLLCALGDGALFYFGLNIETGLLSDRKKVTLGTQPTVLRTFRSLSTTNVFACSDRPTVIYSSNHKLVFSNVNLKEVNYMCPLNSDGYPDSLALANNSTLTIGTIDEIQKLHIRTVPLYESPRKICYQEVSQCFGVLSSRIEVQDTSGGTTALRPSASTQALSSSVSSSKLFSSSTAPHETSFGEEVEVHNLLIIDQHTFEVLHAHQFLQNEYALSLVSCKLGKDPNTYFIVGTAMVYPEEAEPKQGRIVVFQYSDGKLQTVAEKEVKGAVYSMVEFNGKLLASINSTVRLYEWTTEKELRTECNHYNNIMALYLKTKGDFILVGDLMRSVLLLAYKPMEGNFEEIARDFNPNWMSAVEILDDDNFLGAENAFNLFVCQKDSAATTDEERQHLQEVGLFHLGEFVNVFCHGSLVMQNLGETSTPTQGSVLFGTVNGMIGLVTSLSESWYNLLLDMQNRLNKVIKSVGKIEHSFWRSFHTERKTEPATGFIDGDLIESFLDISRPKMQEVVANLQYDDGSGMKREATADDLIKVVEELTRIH

Consider `COc1cc(COC(=O)NCc2ccc3c(c2)C(=O)N(C2CCC(=O)NC2=O)C3)ccc1F` (centres unmarked) [Compound 44, (4-fluoro-3-methoxyphenyl)methyl N-{[2-(2,6-dioxopiperidin-3-yl)-3-oxo-2,3-dihydro-1H-isoindol-5-yl]methyl}carbamate], for which the Dmax in experiment [1] was in the range of 10 to 50%. The same compound gave a Ki in experiment [2] of no more than 0.1 µM.
On to `CC(C)(C)c1cccc(COC(=O)NCc2ccc3c(c2)C(=O)N(C2CCC(=O)NC2=O)C3)c1` (centres unmarked) [Compound 45, (3-tert-butylphenyl)methyl N-{[2-(2,6-dioxopiperidin-3-yl)-3-oxo-2,3-dihydro-1H-isoindol-5-yl]methyl}carbamate], for which the Dmax in experiment [1] lay in the range of 10 to 50%. In experiment [2], this compound showed a Ki of no more than 0.1 µM.
In experiment [1], `CC(C)COc1ccc(COC(=O)NCc2ccc3c(c2)C(=O)N(C2CCC(=O)NC2=O)C3)cc1` (centres unmarked) [Compound 46, [4-(2-methylpropoxy)phenyl]methyl N-{[2-(2,6-dioxopiperidin-3-yl)-3-oxo-2,3-dihydro-1H-isoindol-5-yl]methyl}carbamate] registered a Dmax of 10 to 50%. The same compound returned a Ki in experiment [2] of 0.1 to 1 µM.
The like results for `COc1ccc(COC(=O)NCc2ccc3c(c2)C(=O)N(C2CCC(=O)NC2=O)C3)cc1C(C)C` (centres unmarked) [Compound 47, [4-methoxy-3-(propan-2-yl)phenyl]methyl N-{[2-(2,6-dioxopiperidin-3-yl)-3-oxo-2,3-dihydro-1H-isoindol-5-yl]methyl}carbamate] were, in that order, 10 to 50% and no more than 0.1 µM.
The like results for `O=C1CCC(N2Cc3ccc(CNC(=O)OCc4ccc(C5(F)COC5)cc4)cc3C2=O)C(=O)N1` (centres unmarked) [Compound 48, [4-(3-fluorooxetan-3-yl)phenyl]methyl N-{[2-(2,6-dioxopiperidin-3-yl)-3-oxo-2,3-dihydro-1H-isoindol-5-yl]methyl}carbamate] were, in that order, 10 to 50% and no more than 0.1 µM.
For `CSc1ccc(COC(=O)NCc2ccc3c(c2)C(=O)N(C2CCC(=O)NC2=O)C3)cc1Cl` (centres unmarked) [Compound 49, [3-chloro-4-(methylsulfanyl)phenyl]methyl N-{[2-(2,6-dioxopiperidin-3-yl)-3-oxo-2,3-dihydro-1H-isoindol-5-yl]methyl}carbamate], the Dmax in experiment [1] is 10 to 50%. For the same compound, the Ki in experiment [2] was no more than 0.1 µM.
Regarding `O=C1CCC(N2Cc3ccc(CNC(=O)OCc4ccc(C#CC(F)(F)F)cc4)cc3C2=O)C(=O)N1` (centres unmarked) [Compound 50, [4-(3,3,3-trifluoroprop-1-yn-1-yl)phenyl]methyl N-{[2-(2,6-dioxopiperidin-3-yl)-3-oxo-2,3-dihydro-1H-isoindol-5-yl]methyl}carbamate], in experiment [1], the Dmax was 10 to 50%. Besides, the Ki in experiment [2] lay within 0.1 to 1 µM.
The matching figures for `O=C1CCC(N2Cc3ccc(CNC(=O)OCc4cccc(-c5ccc(F)cc5)c4)cc3C2=O)C(=O)N1` (centres unmarked) [Compound 51, {4′-fluoro-[1,1′-biphenyl]-3-yl}methyl N-{[2-(2,6-dioxopiperidin-3-yl)-3-oxo-2,3-dihydro-1H-isoindol-5-yl]methyl}carbamate]: 10 to 50% and 0.1 to 1 µM.
In turn, `Cc1ncsc1-c1ccc(COC(=O)NCc2ccc3c(c2)C(=O)N(C2CCC(=O)NC2=O)C3)cc1` (centres unmarked) [Compound 52, [4-(4-methyl-1,3-thiazol-5-yl)phenyl]methyl N-{[2-(2,6-dioxopiperidin-3-yl)-3-oxo-2,3-dihydro-1H-isoindol-5-yl]methyl}carbamate] came in with a Dmax in experiment [1] of 10 to 50%. The inhibition constant (Ki) in experiment [2] is no more than 0.1 µM.
`O=C1CCC(N2Cc3ccc(CNC(=O)OCc4ccc(CN5CCCCC5)cc4)cc3C2=O)C(=O)N1` (centres unmarked) [Compound 53, {4-[(piperidin-1-yl)methyl]phenyl}methyl N-{[2-(2,6-dioxopiperidin-3-yl)-3-oxo-2,3-dihydro-1H-isoindol-5-yl]methyl}carbamate]: in experiment [1], the Dmax was no more than 10%. The same compound registered a Ki in experiment [2] of 0.1 to 1 µM.
`O=C1CCC(N2Cc3ccc(CNC(=O)OCc4cccc(OCC(F)(F)F)c4)cc3C2=O)C(=O)N1` (centres unmarked) [Compound 54, [3-(2,2,2-trifluoroethoxy)phenyl]methyl N-{[2-(2,6-dioxopiperidin-3-yl)-3-oxo-2,3-dihydro-1H-isoindol-5-yl]methyl}carbamate] returned a Dmax in experiment [1] of 10 to 50%. Besides, the Ki in experiment [2] was in the range of 0.1 to 1 µM.
Compound `O=C1CCC(N2Cc3ccc(CNC(=O)OCc4ccc(CN5CCOCC5)cc4)cc3C2=O)C(=O)N1` (centres unmarked) [Compound 55, {4-[(morpholin-4-yl)methyl]phenyl}methyl N-{[2-(2,6-dioxopiperidin-3-yl)-3-oxo-2,3-dihydro-1H-isoindol-5-yl]methyl}carbamate] gave a Dmax in experiment [1] of no more than 10%. Also, the Ki in experiment [2] was no more than 0.1 µM.
The compound `O=C1CCC(N2Cc3ccc(CNC(=O)OCc4cccc(SC(F)(F)F)c4)cc3C2=O)C(=O)N1` (centres unmarked) [Compound 56, {3-[(trifluoromethyl)sulfanyl]phenyl}methyl N-{[2-(2,6-dioxopiperidin-3-yl)-3-oxo-2,3-dihydro-1H-isoindol-5-yl]methyl}carbamate] yielded a Dmax in experiment [1] of 10 to 50%. This compound displayed a Ki in experiment [2] of no more than 0.1 µM.
The like results for `O=C1CCC(N2Cc3ccc(CNC(=O)OCc4ccc(OC(F)(F)F)cc4F)cc3C2=O)C(=O)N1` (centres unmarked) [Compound 57, [2-fluoro-4-(trifluoromethoxy)phenyl]methyl N-{[2-(2,6-dioxopiperidin-3-yl)-3-oxo-2,3-dihydro-1H-isoindol-5-yl]methyl}carbamate] were, in that order, 10 to 50% and no more than 0.1 µM.
Take `COc1ccc(-c2cccc(COC(=O)NCc3ccc4c(c3)C(=O)N(C3CCC(=O)NC3=O)C4)c2)cc1` (centres unmarked) [Compound 58, {4′-methoxy-[1,1′-biphenyl]-3-yl}methyl N-{[2-(2,6-dioxopiperidin-3-yl)-3-oxo-2,3-dihydro-1H-isoindol-5-yl]methyl}carbamate]: the Dmax in experiment [1] fell in the range of 10 to 50%. Besides, the Ki in experiment [2] is no more than 0.1 µM.
Compound `O=C1CCC(N2Cc3ccc(CNC(=O)OCc4ccc(C(F)(F)F)cc4)cc3C2=O)C(=O)N1` (centres unmarked) [Compound 59, [4-(trifluoromethyl)phenyl]methyl N-{[2-(2,6-dioxopiperidin-3-yl)-3-oxo-2,3-dihydro-1H-isoindol-5-yl]methyl}carbamate] showed a Dmax in experiment [1] of 10 to 50%. For the same compound, the Ki in experiment [2] lay within 0.1 to 1 µM.
`CC(C)c1ccc(COC(=O)NCc2ccc3c(c2)C(=O)N(C2CCC(=O)NC2=O)C3)cc1` (centres unmarked) [Compound 60, [4-(propan-2-yl)phenyl]methyl N-{[2-(2,6-dioxopiperidin-3-yl)-3-oxo-2,3-dihydro-1H-isoindol-5-yl]methyl}carbamate]: the Dmax in experiment [1] lay in the range of 10 to 50%. For the same compound, the Ki in experiment [2] was no more than 0.1 µM.
In turn, `O=C1CCC(N2Cc3ccc(CNC(=O)OCc4ccc(OCC(F)(F)F)nc4)cc3C2=O)C(=O)N1` (centres unmarked) [Compound 61, [6-(2,2,2-trifluoroethoxy)pyridin-3-yl]methyl N-{[2-(2,6-dioxopiperidin-3-yl)-3-oxo-2,3-dihydro-1H-isoindol-5-yl]methyl}carbamate] yielded a Dmax in experiment [1] of 10 to 50%. This compound came in with a Ki in experiment [2] of no more than 0.1 µM.
For the compound `O=C1CCC(N2Cc3ccc(CNC(=O)OCc4ccc(OCC(F)(F)F)cc4)cc3C2=O)C(=O)N1` (centres unmarked) [Compound 62, [4-(2,2,2-trifluoroethoxy)phenyl]methyl N-{[2-(2,6-dioxopiperidin-3-yl)-3-oxo-2,3-dihydro-1H-isoindol-5-yl]methyl}carbamate], the Dmax in experiment [1] lay in the range of 10 to 50%. In experiment [2], this compound gave a Ki of no more than 0.1 µM.
